Experimental findings from patent publication US20260234099A1, “Endocannabinoid ligands and related analogs” (Northeastern University, priority 2023, published 2026) are described below.

One experiment deals with CB2 receptor (hCB2) (Homo sapiens, UniProt P34972). In words: cAMP assay (inhibition of FSK stimulated cAMP), CB2. The format is cell-based. How it is done: FIG. 2A is a graph providing data of the % inhibition of FSK stimulated cAMP for compound 6.1.1 for hCB2.
Further functional characterization of some of the disclosed compounds tested initially for “binding affinity” or for GTPγ-S binding was performed by using the cyclic adenosine monophosphate (cAMP) assay. Key compounds initially characterized functionally using the GTPγ-S assay were also doubly tested using the cAMP assay to unambiguously confirm their functional profiles. The functional potency of the compounds tested using the cyclase assay is also represented by the EC50 (cAMP) value and similarly the lower the EC50 (cAMP) value the higher the potency of the compound for the receptor. A detailed description of the methods used to test compounds using the cAMP assay is given in Yingpeng, et al. J. Med. Chem. (2018) 61, 8639-8657 the content of which is hereby incorporated by reference. The EC50 values (potency of a test compound) of the functional assays may or may not be accompanied by the E(max) value in tables 1-5 (efficacy of the test compound). E(max)/efficacy is the maximum GTP stimulation or cAMP inhibition levels and is presented as the percentage of maximum response evoked by a standard CB1/CB2 full agonist (e.g., CP-55,940) for reference see the paper cited above. If a test compound has an efficacy close to 100% of the standard full agonist, then the test compound is also classified as full agonist.
A general note: cAMP levels reflect the balance of adenylyl cyclase and phosphodiesterase activity.

Experiment [1] has as its target T1, CB2 receptor (Homo sapiens, UniProt P34972). Put plainly: GTPγ-S binding assay, CB2. In kind it is biochemical. The protocol:
The activity of some of the disclosed compounds for the CB1 and CB2 receptors was assessed by using the GTPγ-S binding assay (Tables 2,3,4). As used herein the “effect” of the compound on the GTPγ-S assay is represented by the EC50 (GTP) value. The lower the EC50 (GTP) value the higher the potency of the compound for the receptor A detailed description of the methods used to test compounds using the GTPγ-S assay is given in Parkkari, et al., Biorg. Med. Chem. Letters 2006, 16(9), 2437 and Griffin, et al., J. Pharmacol. Exp. Ther. 1998, 285(2), 553-560 the content of which is hereby incorporated by reference.
On the technique in general: GTPγS is a poorly hydrolysed GTP analogue; its binding reports G protein activation.

Experiment [2] concerns the target T2, CB1 receptor (Rattus norvegicus, UniProt P20272). Put plainly: GTPγ-S binding assay, CB1. The format is biochemical. Particulars: class symbols; read-out: EC50 (GTP) CB1 receptor. The protocol:
The activity of some of the disclosed compounds for the CB1 and CB2 receptors was assessed by using the GTPγ-S binding assay (Tables 2,3,4). As used herein the “effect” of the compound on the GTPγ-S assay is represented by the EC50 (GTP) value. […] Med. Chem. Letters 2006, 16(9), 2437 and Griffin, et al., J. Pharmacol. Exp. Ther. 1998, 285(2), 553-560 the content of which is hereby incorporated by reference.

Experiment [3] has as its target T2, CB1 receptor. Put plainly: CB1 receptor binding affinity (Ki). Particulars: without PMSF; read-out: CB1 receptor affinity Ki. The protocol:
(§1) Some disclosed compounds were tested for CB1 and CB2 receptor binding affinity (Tables 1, 2, 3, 4, 5). As used herein “binding affinity” is represented by the Ki value. The Ki value is the affinity constant and describes the affinity of the compound for the receptor. […] A detailed description of the methods used to test “binding affinity” of compounds is given in Makriyannis, et al., US 2007/0135388 the content of which is hereby incorporated by reference.

For experiment [4], the target named is T1, CB2 receptor. In words: CB2 receptor binding affinity (Ki). More on the design: CB2 receptor Ki. The protocol: as §1

Read-outs that look alike come from different tables or passages of the source. Where only a bound is given, the exact number is not on record here.

T2 sequence (P20272 whole entry): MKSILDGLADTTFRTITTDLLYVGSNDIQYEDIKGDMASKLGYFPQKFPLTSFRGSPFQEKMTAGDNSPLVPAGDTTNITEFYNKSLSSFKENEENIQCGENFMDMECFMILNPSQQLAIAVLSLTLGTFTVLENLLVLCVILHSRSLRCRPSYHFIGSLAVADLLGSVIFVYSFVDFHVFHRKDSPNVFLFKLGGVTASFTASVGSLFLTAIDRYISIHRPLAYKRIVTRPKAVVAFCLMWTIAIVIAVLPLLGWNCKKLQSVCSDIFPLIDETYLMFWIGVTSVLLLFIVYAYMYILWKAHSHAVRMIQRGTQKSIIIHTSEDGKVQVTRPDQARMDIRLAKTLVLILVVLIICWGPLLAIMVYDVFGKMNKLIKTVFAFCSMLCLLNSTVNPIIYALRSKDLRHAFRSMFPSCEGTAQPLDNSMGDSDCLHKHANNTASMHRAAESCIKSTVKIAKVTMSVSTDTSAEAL
Chain of CB2 receptor (hCB2) (P34972 whole entry): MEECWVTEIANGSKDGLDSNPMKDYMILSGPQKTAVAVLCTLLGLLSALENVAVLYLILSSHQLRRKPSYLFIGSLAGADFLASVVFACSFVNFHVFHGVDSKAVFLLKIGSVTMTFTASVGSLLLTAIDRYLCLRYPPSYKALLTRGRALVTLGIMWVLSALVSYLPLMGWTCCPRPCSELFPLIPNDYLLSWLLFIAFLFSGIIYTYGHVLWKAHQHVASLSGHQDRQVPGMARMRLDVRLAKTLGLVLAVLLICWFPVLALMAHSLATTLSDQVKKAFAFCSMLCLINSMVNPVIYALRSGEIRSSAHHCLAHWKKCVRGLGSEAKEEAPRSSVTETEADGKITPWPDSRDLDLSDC
T1 sequence (P34972 whole entry): as above

For orientation: EC50 means the concentration at which the effect is half-maximal. As to `CCCCC/C=C\C/C=C\C/C=C\C/C=C\CCCC(=O)OC(CO)CO` [Compound 2-AG, 2-arachidonoylglycerol, reference compound], the EC50 at CB2 receptor (hCB2) (class symbols) was in the range of 10 to 200 nM; at CB2 receptor [1] (class symbols, read-out: EC50 (GTP) CB2 receptor) it was 200 to 1000 nM.

For the molecule `CCCCC/C=C\C/C=C\C/C=C\[C@H](C)/C=C\CCCC(=O)OC(CO)CO` [Compound 5.4.3a, 1,3-Dihydroxypropan-2-yl (R,5Z,8Z,11Z,14Z)-7-methylicosa-5,8,11,14-tetraenoate], the values for the EC50 on CB1 receptor [2] and on CB2 receptor [1] were greater than 1000 nM and 200 to 1000 nM, respectively.

Regarding `CCCCC/C=C\C/C=C\C/C=C\[C@@H](C)/C=C\CCCC(=O)OC(CO)CO` [Compound 5.4.3b, 1,3-Dihydroxypropan-2-yl (S,5Z,8Z,11Z,14Z)-7-methylicosa-5,8,11,14-tetraenoate], the EC50 on CB1 receptor [2] and on CB2 receptor [1] was greater than 1000 nM in each case.

The term Ki denotes the equilibrium dissociation constant of an inhibitor or competing ligand from its target. A word on the Emax: it is the size of the effect at its maximum, as opposed to the concentration needed. As for `CCCCC/C=C\[C@H](C)/C=C\C/C=C\C/C=C\CCCCNC(=O)COC` [Compound 6.1.1, 2-Methoxy-N—((S,5Z,8Z,11Z,14Z)-13-methylicosa-5,8,11,14-tetraen-1-yl)acetamide], the inhibition constant Ki on CB1 receptor [3] and at CB2 receptor [4] was 0.01 to 10 nM each time. For the same molecule, the “functional profile at CB2 (cAMP)” value on CB2 receptor (hCB2) (full or partial agonist) is “partial agonist”. Also, the EC50 on CB2 receptor (hCB2) (numeric) worked out at 1.2 nM. Further, the Emax at CB2 receptor (hCB2) (percentage of maximum response of standard full agonist (e.g., CP-55,940)) is 40%.
